From PubChem BioAssay (NCI)
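Five compound concentrations were applied to cells in 96-well plates for 48 hours; endpoints were derived by simple linear interpolation of the resulting dose-response curve. TGI: concentration producing complete growth inhibition.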

Assays:
Assay in all cases: DTP human tumour cell line panel, 48 h
786-0 renal = test system: 786-0 renal
A549 NSCLC = test system: A549 NSCLC
ACHN renal = test system: ACHN renal
CAKI-1 renal = test system: CAKI-1 renal
CCRF-CEM leukemia = test system: CCRF-CEM leukemia
COLO 205 colon = test system: COLO 205 colon
DLD-1 colon = test system: DLD-1 colon
DMS 114 small cell lung = test system: DMS 114 small cell lung
DMS 273 small cell lung = test system: DMS 273 small cell lung
EKVX NSCLC = test system: EKVX NSCLC
HCC-2998 colon = test system: HCC-2998 colon
HCT-15 colon = test system: HCT-15 colon
HL-60(TB) leukemia = test system: HL-60(TB) leukemia
HOP-62 NSCLC = test system: HOP-62 NSCLC
HOP-92 NSCLC = test system: HOP-92 NSCLC
HT29 colon = test system: HT29 colon
IGROV1 ovarian = test system: IGROV1 ovarian
K-562 leukemia = test system: K-562 leukemia
KM12 colon = test system: KM12 colon
KM20L2 colon = test system: KM20L2 colon
LOX IMVI melanoma = test system: LOX IMVI melanoma
LXFL 529 NSCLC = test system: LXFL 529 NSCLC
M14 melanoma = test system: M14 melanoma
M19-MEL melanoma = test system: M19-MEL melanoma
MALME-3M melanoma = test system: MALME-3M melanoma
MOLT-4 leukemia = test system: MOLT-4 leukemia
NCI-H23 lung = test system: NCI-H23 lung
NCI-H460 lung = test system: NCI-H460 lung
NCI-H522 lung = test system: NCI-H522 lung
OVCAR-3 ovarian = test system: OVCAR-3 ovarian
OVCAR-4 ovarian = test system: OVCAR-4 ovarian
OVCAR-5 ovarian = test system: OVCAR-5 ovarian
OVCAR-8 ovarian = test system: OVCAR-8 ovarian
RPMI-8226 leukemia = test system: RPMI-8226 leukemia
RXF 393 renal = test system: RXF 393 renal
RXF-631 renal = test system: RXF-631 renal
SF-268 CNS = test system: SF-268 CNS
SF-295 CNS = test system: SF-295 CNS
SK-MEL-2 melanoma = test system: SK-MEL-2 melanoma
SK-MEL-28 melanoma = test system: SK-MEL-28 melanoma
SK-MEL-5 melanoma = test system: SK-MEL-5 melanoma
SK-OV-3 ovarian = test system: SK-OV-3 ovarian
SN12C renal = test system: SN12C renal
SNB-19 CNS = test system: SNB-19 CNS
SNB-75 CNS = test system: SNB-75 CNS
SNB-78 CNS = test system: SNB-78 CNS
SW-620 colon = test system: SW-620 colon
TK-10 renal = test system: TK-10 renal
UACC-257 melanoma = test system: UACC-257 melanoma
UACC-62 melanoma = test system: UACC-62 melanoma
UO-31 renal = test system: UO-31 renal
XF 498 CNS = test system: XF 498 CNS
A498 renal = test system: A498 renal
HCT-116 colon = test system: HCT-116 colon
NCI-H226 lung = test system: NCI-H226 lung
SF-539 CNS = test system: SF-539 CNS
SR leukemia = test system: SR leukemia
U251 CNS = test system: U251 CNS

## C#CC[N+](C)(CC#C)CC#C
786-0 renal
  TGI: > 100 µM
A549 NSCLC
  TGI: > 100 µM
ACHN renal
  TGI: > 100 µM
CAKI-1 renal
  TGI: > 100 µM
CCRF-CEM leukemia
  TGI: > 100 µM
COLO 205 colon
  TGI: > 100 µM
DLD-1 colon
  TGI: > 100 µM
DMS 114 small cell lung
  TGI: > 100 µM
DMS 273 small cell lung
  TGI: > 100 µM
EKVX NSCLC
  TGI: > 100 µM
HCC-2998 colon
  TGI: > 100 µM
HCT-15 colon
  TGI: > 100 µM
HL-60(TB) leukemia
  TGI: > 100 µM
HOP-62 NSCLC
  TGI: > 100 µM
HOP-92 NSCLC
  TGI: > 100 µM
HT29 colon
  TGI: > 100 µM
IGROV1 ovarian
  TGI: > 100 µM
K-562 leukemia
  TGI: > 100 µM
KM12 colon
  TGI: > 100 µM
KM20L2 colon
  TGI: > 100 µM
LOX IMVI melanoma
  TGI: > 100 µM
LXFL 529 NSCLC
  TGI: > 100 µM
M14 melanoma
  TGI: > 100 µM
M19-MEL melanoma
  TGI: > 100 µM
MALME-3M melanoma
  TGI: > 100 µM
MOLT-4 leukemia
  TGI: > 100 µM
NCI-H23 lung
  TGI: > 100 µM
NCI-H460 lung
  TGI: > 100 µM
NCI-H522 lung
  TGI: > 100 µM
OVCAR-3 ovarian
  TGI: > 100 µM
OVCAR-4 ovarian
  TGI: > 100 µM
OVCAR-5 ovarian
  TGI: > 100 µM
OVCAR-8 ovarian
  TGI: > 100 µM
RPMI-8226 leukemia
  TGI: > 100 µM
RXF 393 renal
  TGI: > 100 µM
RXF-631 renal
  TGI: > 100 µM
SF-268 CNS
  TGI: > 100 µM
SF-295 CNS
  TGI: > 100 µM
SK-MEL-2 melanoma
  TGI: > 100 µM
SK-MEL-28 melanoma
  TGI: > 100 µM
SK-MEL-5 melanoma
  TGI: > 100 µM
SK-OV-3 ovarian
  TGI: > 100 µM
SN12C renal
  TGI: > 100 µM
SNB-19 CNS
  TGI: > 100 µM
SNB-75 CNS
  TGI: > 100 µM
SNB-78 CNS
  TGI: > 100 µM
SW-620 colon
  TGI: > 100 µM
TK-10 renal
  TGI: > 100 µM
UACC-257 melanoma
  TGI: > 100 µM
UACC-62 melanoma
  TGI: > 100 µM
UO-31 renal
  TGI: > 100 µM
XF 498 CNS
  TGI: > 100 µM

## CCCCCCCCCCCCCCCCNCCCN(C)CCCN
786-0 renal
  TGI: 28.9 µM
A498 renal
  TGI: 34 µM
A549 NSCLC
  TGI: 32.1 µM
ACHN renal
  TGI: 34.9 µM
CAKI-1 renal
  TGI: 35.8 µM
COLO 205 colon
  TGI: 46.6 µM
DLD-1 colon
  TGI: 36 µM
DMS 114 small cell lung
  TGI: 35.1 µM
DMS 273 small cell lung
  TGI: 34.8 µM
EKVX NSCLC
  TGI: 42.8 µM
HCC-2998 colon
  TGI: 33.4 µM
HCT-116 colon
  TGI: 38 µM
HCT-15 colon
  TGI: 32.7 µM
HL-60(TB) leukemia
  TGI: 42.4 µM
HT29 colon
  TGI: 35.8 µM
IGROV1 ovarian
  TGI: 43.1 µM
K-562 leukemia
  TGI: 49.5 µM
KM12 colon
  TGI: 33 µM
KM20L2 colon
  TGI: 32.7 µM
LOX IMVI melanoma
  TGI: 42 µM
LXFL 529 NSCLC
  TGI: 33.2 µM
M14 melanoma
  TGI: 30.8 µM
M19-MEL melanoma
  TGI: 41.3 µM
MOLT-4 leukemia
  TGI: 94.1 µM
NCI-H226 lung
  TGI: 39.3 µM
NCI-H23 lung
  TGI: 34.1 µM
NCI-H460 lung
  TGI: 34.1 µM
NCI-H522 lung
  TGI: 32.3 µM
OVCAR-3 ovarian
  TGI: 35.9 µM
OVCAR-4 ovarian
  TGI: 32.9 µM
OVCAR-5 ovarian
  TGI: 31.7 µM
OVCAR-8 ovarian
  TGI: 38.5 µM
RPMI-8226 leukemia
  TGI: 46.2 µM
SF-268 CNS
  TGI: 34.9 µM
SF-295 CNS
  TGI: 33.4 µM
SF-539 CNS
  TGI: 34.5 µM
SK-MEL-2 melanoma
  TGI: 41.8 µM
SK-MEL-28 melanoma
  TGI: 26.6 µM
SK-MEL-5 melanoma
  TGI: 31.4 µM
SK-OV-3 ovarian
  TGI: 34.6 µM
SN12C renal
  TGI: 41 µM
SNB-19 CNS
  TGI: 31.5 µM
SNB-75 CNS
  TGI: 34.2 µM
SNB-78 CNS
  TGI: 34.4 µM
SR leukemia
  TGI: 42.2 µM
SW-620 colon
  TGI: 36.3 µM
TK-10 renal
  TGI: 29.3 µM
U251 CNS
  TGI: 31.8 µM
UACC-257 melanoma
  TGI: 40.4 µM
UACC-62 melanoma
  TGI: 33.2 µM
UO-31 renal
  TGI: 31.6 µM
